US9181185B2, “Heteroaryl compounds as sodium channel blockers” (Purdue Pharma L.P., priority 2011, dated 2015)
Like-named read-outs stand apart in the source and are kept apart here.

How the values were obtained:
[1] = target: human Nav1.7 (Homo sapiens (Human), UniProt Q15858); experiment: FLIPR or FLIPR TETRA sodium dye assay with KCl and test article pre-incubation; type: cell-based
[2] = target: hNav1.7 (Homo sapiens (Human), UniProt Q15858); experiment: Electrophysiology (EP) assay, whole-cell patch clamp; type: cell-based; conditions: hNav1.7 HEK-293 cells; for Kd: Kf (method describes resting block dissociation constant Kr), read-out: EP Nav 1.7 Kf (μM) ± SEM; for Ki: affinity for inactivated state, read-out: EP Nav 1.7 Ki (μM) ± SEM
Chain of hNav1.7 (Q15858 other isoform, or with tags, fused parts or gaps): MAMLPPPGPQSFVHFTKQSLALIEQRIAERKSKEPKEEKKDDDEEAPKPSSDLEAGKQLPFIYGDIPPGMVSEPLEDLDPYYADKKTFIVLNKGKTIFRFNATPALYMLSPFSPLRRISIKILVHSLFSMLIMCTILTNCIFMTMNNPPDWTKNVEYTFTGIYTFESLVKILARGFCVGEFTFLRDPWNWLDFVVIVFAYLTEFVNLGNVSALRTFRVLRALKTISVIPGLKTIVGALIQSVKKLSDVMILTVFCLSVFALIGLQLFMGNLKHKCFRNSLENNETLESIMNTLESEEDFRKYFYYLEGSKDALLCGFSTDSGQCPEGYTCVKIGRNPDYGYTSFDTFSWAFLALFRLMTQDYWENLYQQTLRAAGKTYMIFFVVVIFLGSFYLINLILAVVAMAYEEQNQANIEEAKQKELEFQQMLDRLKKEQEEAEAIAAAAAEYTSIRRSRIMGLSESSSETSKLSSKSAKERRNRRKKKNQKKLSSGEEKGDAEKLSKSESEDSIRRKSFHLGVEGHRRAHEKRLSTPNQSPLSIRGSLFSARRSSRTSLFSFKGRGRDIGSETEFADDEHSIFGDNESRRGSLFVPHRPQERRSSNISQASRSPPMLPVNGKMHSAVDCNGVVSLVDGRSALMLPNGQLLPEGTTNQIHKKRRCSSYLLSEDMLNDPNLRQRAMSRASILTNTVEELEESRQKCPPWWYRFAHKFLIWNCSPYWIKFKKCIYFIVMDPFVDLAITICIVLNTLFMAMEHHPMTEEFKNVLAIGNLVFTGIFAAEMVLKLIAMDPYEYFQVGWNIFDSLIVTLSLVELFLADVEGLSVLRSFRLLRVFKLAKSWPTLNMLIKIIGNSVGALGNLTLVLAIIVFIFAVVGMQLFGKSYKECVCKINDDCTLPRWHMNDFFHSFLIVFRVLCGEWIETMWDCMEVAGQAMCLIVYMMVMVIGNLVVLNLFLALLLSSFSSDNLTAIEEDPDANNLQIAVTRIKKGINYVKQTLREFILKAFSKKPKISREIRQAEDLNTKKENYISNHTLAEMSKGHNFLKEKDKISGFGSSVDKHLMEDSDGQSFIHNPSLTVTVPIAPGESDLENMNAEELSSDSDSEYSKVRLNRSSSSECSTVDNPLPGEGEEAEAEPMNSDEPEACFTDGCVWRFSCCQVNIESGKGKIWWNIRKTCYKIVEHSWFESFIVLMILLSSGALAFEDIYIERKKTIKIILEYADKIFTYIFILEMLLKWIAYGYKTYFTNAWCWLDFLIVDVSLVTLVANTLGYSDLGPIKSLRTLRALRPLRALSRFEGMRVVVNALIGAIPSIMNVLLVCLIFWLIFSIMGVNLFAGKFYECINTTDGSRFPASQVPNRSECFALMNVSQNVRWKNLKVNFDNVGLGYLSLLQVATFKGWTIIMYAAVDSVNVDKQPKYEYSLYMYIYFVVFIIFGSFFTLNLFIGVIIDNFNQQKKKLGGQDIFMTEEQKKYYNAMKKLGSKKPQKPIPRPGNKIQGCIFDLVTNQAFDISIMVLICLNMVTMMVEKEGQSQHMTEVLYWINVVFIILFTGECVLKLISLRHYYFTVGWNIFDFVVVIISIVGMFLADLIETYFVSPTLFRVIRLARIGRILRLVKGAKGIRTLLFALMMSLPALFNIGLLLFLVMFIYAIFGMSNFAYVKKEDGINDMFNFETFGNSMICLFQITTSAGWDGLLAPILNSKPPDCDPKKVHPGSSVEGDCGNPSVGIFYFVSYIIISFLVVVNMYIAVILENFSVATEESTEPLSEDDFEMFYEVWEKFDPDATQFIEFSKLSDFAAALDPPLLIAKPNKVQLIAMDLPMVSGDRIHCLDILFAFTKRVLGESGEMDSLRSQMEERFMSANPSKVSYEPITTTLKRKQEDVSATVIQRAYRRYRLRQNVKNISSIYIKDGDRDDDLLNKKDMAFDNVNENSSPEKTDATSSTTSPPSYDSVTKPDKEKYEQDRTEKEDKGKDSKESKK
Protocol: Cells: The hNav1.7 expressing HEK-293 cells were plated on 35 mm culture dishes pre-coated with poly-D-lysine in standard DMEM culture media (Mediatech, Inc., Herndon, Va.) and incubated in a 5% CO2 incubator at 37° C. Cultured cells were used approximately 12-48 hours after plating.
Electrophysiology: On the day of experimentation, the 35 mm dish was placed on the stage of an inverted microscope equipped with a perfusion system that continuously perfuses the culture dish with fresh recording media. A gravity driven superfusion system was used to apply test solutions directly to the cell under evaluation. This system consists of an array of glass pipette glass connected to a motorized horizontal translator. The outlet of the shooter was positioned approximately 100 μm from the cell of interest.
Whole cell currents were recorded using the whole-cell patch clamp configuration using an Axopatch 200B amplifier (Axon Instruments, Foster City Calif.), 1322A A/D converter (Axon Instruments) and pClamp software (v. 8; Axon Instruments) and stored on a personal computer. Gigaseals were formed and the whole-cell configuration was established in voltage clamp mode, and membrane currents generated by hNav1.7 were recorded in gap-free mode. Borosilicate glass pipettes have resistance values between 1.5 and 2.0 MΩ when filled with pipette solution and series resistance (<5 MΩ) was compensated 75-80%. Signals were sampled at 50 kHz and low pass filtered at 3 kHz.
Voltage Protocols: After establishing the whole-cell configuration in voltage clamp mode, voltage protocols were run to establish the 1) test potential, 2) holding potential, and 3) the conditioning potential for each cell.
After establishing the whole-cell configuration in voltage clamp mode, a standard I-V protocol was run to determine the potential at which the maximal current (Imax) is elicited. This potential was the test potential (Vt). To determine a conditioning potential at which 100% of channels were in the inactivated state, a standard steady-state inactivation (SSIN) protocol was run using a series of fifteen 100 ms-long depolarizing prepulses, incrementing in 10 mV steps, immediately followed by a 5 ms testing pulse, Vt, to Vmax. This protocol also permitted determination of the holding potential at which all channels are in the resting state.
For compounds causing significant retardation of recovery from inactivation, an estimate of the affinity for the inactivated state of the channel (Ki) was generated using the following protocol. From the negative, no residual inactivation, holding potential, the cell was depolarized to the conditioning voltage for 2-5 seconds, returned to the negative holding potential for 10-20 ms to relieve fast inactivation and then depolarized to the test potential for ˜15 ms. This voltage protocol was repeated every 10-15 seconds, first to establish a baseline in the absence of the test compound, then in the presence of the test compound.
After a stable baseline was established, the test compound was applied and block of the current elicited by the test pulse assessed. In some cases, multiple cumulative concentrations were applied to identify a concentration that blocked between 40-60% of this current. Washout of the compound was attempted by superfusing with control solution once steady-state block was observed. An estimate of the Ki was calculated as follows: Ki=[drug]*{FR/(1−FR)}, Eq. 1 where [drug] is the concentration of a drug, and FR=I(after drug)/l(control), Eq. 2 where I is the peak current amplitude. If multiple concentrations were used, Ki was determined from the fit of a logistic equation to FRs plotted against corresponding drug concentrations.
In the alternative, the voltage clamp protocol to examine hNav1.7 currents was as follows. […]

[3] = recombinant HEK293 cells expressing human Nav1.7, CoroNa Green sodium dye, veratridine + scorpion venom, read-out: FLIPR Nav 1.7 IC50 (μM) ± SEM
[4] = read-out: FLIPR Nav 1.7 IC50 (μM) ± SEM

Chain of human Nav1.7 (Q15858 other isoform, or with tags, fused parts or gaps): as above

Structure (SMILES) | IC50 [1, 3] [µM] | IC50 [1, 4] [µM] | also measured
NC(=O)[C@H](O)[C@@H](O)c1cccc(-c2ccc(Oc3ccc(C(F)(F)F)cc3)cc2)n1 | 0.383 ± 0.072 | – | –
NC(=O)[C@H](O)[C@@H](O)c1cn(-c2ccc(Oc3ccc(C(F)(F)F)cn3)cc2)c2ccccc12 [Compound 5, (2R,3S)-2,3-Dihydroxy-3-(1-(4-((5-(trifluoromethyl)pyridin-2-yl)oxy)phenyl)-1H-indol-3-yl)propanamide] | – | 0.314 ± 0.038 | –
NC(=O)[C@@H](O)[C@H](O)c1cccc(-c2ccc(Oc3ccc(C(F)(F)F)cn3)cc2)n1 | 0.711 ± 0.05 | – | –
N#Cc1ccc(Oc2ccc(-c3cccc([C@H](O)[C@@H](O)C(N)=O)n3)cc2)cc1 | 0.69 ± 0.071 | – | –
N#Cc1ccc(Oc2ccc(-c3cccc([C@@H](O)[C@H](O)C(N)=O)n3)cc2)cc1C(F)(F)F | 0.461 ± 0.045 | – | –
N#Cc1ccc(Oc2ccc(-c3cccc([C@@H](O)[C@H](O)C(N)=O)n3)cc2)cc1 | 0.262 ± 0.017 | – | –
CCOC(=O)[C@@H](O)[C@H](O)c1cn(-c2ccc(Oc3ccc(C(F)(F)F)cn3)cc2)c2ccccc12 [Compound 6, (2S,3R)-Ethyl 2,3-dihydroxy-3-(1-(4-((5-(trifluoromethyl)pyridin-2-yl)oxy)phenyl)-1H-indol-3-yl)propanoate] | 0.152 ± 0.031 | – | –
NC(=O)[C@H](O)[C@@H](O)c1cccc(-c2ccc(Oc3ccc(C(F)(F)F)cn3)cc2)n1 | 1.69 ± 0.019 | – | –
NC(=O)[C@@H](O)[C@H](O)c1cccc(-c2ccc(Oc3ccc(Cl)nc3)cc2)n1 | 0.376 ± 0.057 | – | –
NC(=O)[C@H](O)[C@@H](O)c1ccnc(-c2ccc(Oc3ccc(F)cc3)cc2)n1 [Compound 26, (2R,3S)-3-(2-(4-(4-fluorophenoxy)phenyl)pyrimidin-4-yl)-2,3-dihydroxypropanamide] | 0.625 ± 0.058 | – | Kd [2]: 97.9 ± 23.1 µM; Ki [2]: 2.26 ± 0.61 µM
N#Cc1cc(Oc2ccc(-c3cccc([C@@H](O)[C@H](O)C(N)=O)n3)cc2)ccc1C(F)(F)F [Compound 15, (2S,3R)-3-(6-(4-(3-Cyano-4-(trifluoromethyl)phenoxy)phenyl)pyridin-2-yl)-2,3-dihydroxypropanamide] | – | 0.304 ± 0.022 | Kd [2]: 32.9 ± 6.89 µM; Ki [2]: 0.917 ± 0.05 µM
NC(=O)[C@@H](O)[C@H](O)c1cccc(-c2ccc(Oc3ccc(C(F)(F)F)cc3)cc2)n1 | 0.13 ± 0.025 | – | –
NC(=O)[C@H](O)[C@@H](O)c1cccc(-c2ccc(Oc3ccc(Cl)nc3)cc2)n1 | 0.804 ± 0.044 | – | –
NC(=O)[C@@H](O)[C@H](O)c1cn(-c2ccc(Oc3ccc(C(F)(F)F)cn3)cc2)c2ccccc12 [Compound 8, (2S,3R)-2,3-Dihydroxy-3-(1-(4-((5-(trifluoromethyl)pyridin-2-yl)oxy)phenyl)-1H-indol-3-yl)propanamide] | – | 0.193 ± 0.049 | –
N#Cc1cc(Oc2ccc(-c3cccc([C@H](O)[C@@H](O)C(N)=O)n3)cc2)ccc1C(F)(F)F [Compound 19, (2R,3S)-3-(6-(4-(3-Cyano-4-(trifluoromethyl)phenoxy)phenyl)pyridin-2-yl)-2,3-dihydroxypropanamide] | – | 0.244 ± 0.05 | Kd [2]: 17.1 ± 4.24 µM; Ki [2]: 0.347 ± 0.07 µM
CCOC(=O)[C@@H](O)[C@H](O)c1cccc(-c2ccc(Oc3ccc(C(F)(F)F)c(C#N)c3)cc2)n1 [Compound 14, (2S,3R)-Ethyl 3-(6-(4-(3-cyano-4-(trifluoromethyl)phenoxy)phenyl)pyridin-2-yl)-2,3-dihydroxypropanoate] | – | – | IC50 [1]: 0.246 ± 0.031 µM
NC(=O)[C@@H](O)[C@H](O)c1cccc(-c2ccc(Oc3ccc(Cl)cn3)cc2)n1 | – | 1.19 ± 0.074 | –
NC(=O)[C@@H](O)[C@H](O)c1cccc(-c2ccc(Oc3ccc(F)cc3)cc2)n1 | – | 1.41 ± 0.281 | –
NC(=O)[C@H](O)[C@@H](O)c1cccc(-c2ccc(Oc3ccc(F)cc3)cc2)n1 | – | 1.84 ± 0.309 | –
N#Cc1ccc(Oc2ccc(-c3cccc([C@H](O)[C@@H](O)C(N)=O)n3)cc2)cc1C(F)(F)F | 0.489 ± 0.04 | – | –
CNC(=O)[C@@H](O)[C@H](O)c1cn(-c2ccc(Oc3ccc(C(F)(F)F)cn3)cc2)c2ccccc12 [Compound 7, (2S,3R)-2,3-Dihydroxy-N-methyl-3-(1-(4-((5-(trifluoromethyl)pyridin-2-yl)oxy)phenyl)-1H-indol-3-yl)propanamide] | 0.282 ± 0.002 | – | –
NC(=O)[C@H](O)[C@@H](O)c1cccc(-c2ccc(Oc3ccc(Cl)cn3)cc2)n1 | – | 1.44 ± 0.078 | –
